These results are taken from patent US20040229848A1, “Glutaminyl based DP IV-inhibitors” (priority 2003, published 2004).

Like-named read-outs stand apart in the source and are kept apart here.

In one series the target is human QC (Homo sapiens, UniProt Q16769). As to the kind of experiment: Inhibition of the human QC (glutaminyl cyclase) catalyzed reaction, Ki determination.
In another series the target is glutaminyl cyclase (QC) (Homo sapiens, UniProt Q16769).
The next series concerns the target DPIV (Homo sapiens, UniProt P27487). The experiment in a line: DPIV activity assay, hydrolysis of H-Gly-Pro-pNA. The settings on record: 0.4 mM H-Gly-Pro-pNA, 0.65 mU DPIV, 0.04 M Hepes pH 7.6, 30° C.; 2.6*10^−5 M glutaminyl thiazolidine.
[1] abbreviates: human QC catalyzed reaction, 30° C. in 0.05 M Tris-HCl pH 8.0, containing 5 mM EDTA.
The mark [2] stands for this setting: read-out: Ki-value, human QC catalyzed reaction, 30° C. in 0.05 M Tris-HCl pH 8.0, containing 5 mM EDTA.
Setting [3] is: read-out: Ki value, QC inhibition by L-histamine and its two biological metabolites (Table 4).

Chain of human QC (Q16769 29-361): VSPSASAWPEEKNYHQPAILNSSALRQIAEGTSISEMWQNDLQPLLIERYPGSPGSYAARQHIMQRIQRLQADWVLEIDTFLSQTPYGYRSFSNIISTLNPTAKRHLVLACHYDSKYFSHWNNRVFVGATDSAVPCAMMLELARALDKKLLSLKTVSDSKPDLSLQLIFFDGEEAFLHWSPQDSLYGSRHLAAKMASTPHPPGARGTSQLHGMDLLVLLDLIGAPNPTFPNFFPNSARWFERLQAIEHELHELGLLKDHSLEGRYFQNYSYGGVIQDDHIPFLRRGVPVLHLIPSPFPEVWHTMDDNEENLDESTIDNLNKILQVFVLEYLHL
Chain of glutaminyl cyclase (QC) (Q16769 29-361): as above
Chain of DPIV (P27487 whole entry): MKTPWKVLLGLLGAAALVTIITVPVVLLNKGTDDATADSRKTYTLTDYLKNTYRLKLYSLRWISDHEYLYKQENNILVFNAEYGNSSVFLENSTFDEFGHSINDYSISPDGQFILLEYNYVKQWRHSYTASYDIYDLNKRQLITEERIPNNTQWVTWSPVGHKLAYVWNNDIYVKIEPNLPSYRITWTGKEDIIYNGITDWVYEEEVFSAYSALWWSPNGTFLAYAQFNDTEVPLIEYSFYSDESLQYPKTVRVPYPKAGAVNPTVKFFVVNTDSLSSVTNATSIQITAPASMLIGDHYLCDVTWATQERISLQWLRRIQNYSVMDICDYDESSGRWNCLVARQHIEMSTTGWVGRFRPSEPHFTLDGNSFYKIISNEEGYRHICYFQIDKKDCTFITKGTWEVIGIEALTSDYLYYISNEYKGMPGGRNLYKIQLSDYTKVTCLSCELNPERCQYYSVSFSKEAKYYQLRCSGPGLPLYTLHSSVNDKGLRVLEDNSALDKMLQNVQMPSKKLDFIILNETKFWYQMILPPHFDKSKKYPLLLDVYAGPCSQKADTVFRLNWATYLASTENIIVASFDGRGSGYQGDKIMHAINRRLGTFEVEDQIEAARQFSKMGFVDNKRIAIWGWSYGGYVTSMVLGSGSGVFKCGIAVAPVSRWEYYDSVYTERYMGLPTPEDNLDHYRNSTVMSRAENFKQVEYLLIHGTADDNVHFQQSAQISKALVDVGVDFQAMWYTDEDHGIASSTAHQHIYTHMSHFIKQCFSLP
Experimental for DPIV: (§1) All assays were performed at 30° C. using the Sunrise reader for microplates (TECAN). […] Additionally, samples contained either
(§2) a) 2.6*10^−5 M glutaminyl thiazolidine (open circles), or
(§3) Otherways, reactions were started by addition of a mixture of H-Gly-Pro-pNA and glutaminyl thiazolidine. Reactions were followed by monitoring the decrease in absorbance at 400 nm.
Experimental for glutaminyl cyclase (QC): as §1, §2, §3
Experimental for human QC: Excitation/emission wavelengths were 320/410 nm. The assay reactions were initiated by addition of glutaminyl cyclase.
Reactions were carried out at 30° C. utilizing the NOVOStar reader for microplates (BMG labtechnologies). […] Excitation/emission wavelengths were 380/460 nm. The assay reactions were initiated by addition of glutaminyl cyclase. […] The kinetic data were evaluated using GraFit software.
The initial velocities were evaluated and the enzymatic activity was determined from a standard curve of ammonia under assay conditions. All samples were measured at 30° C., using either the [sequence]luor Plus or the Sunrise (both from TECAN) reader for microplates. Kinetic data was evaluated using GraFit software.
For inhibitor testing, the sample composition was the same as described above, except of the putative inhibitory compound added. […] For detailed investigations of the inhibition and determination of Ki-values, influence of the inhibitor on the auxiliary enzymes was investigated first.

`O=S(=O)(n1ccnc1)n1ccnc1` [1,1′-sulfonyldiimidazole]: the “Ki-value (mM)” value at human QC (setting [1]) was “no inhibition”.

As for `O=C(Cn1ccnc1)c1ccccc1` [1-(2-oxo-2-phenyl-ethyl)-imidazole], at human QC (setting [2]), the Ki worked out at 184 ± 5 µM.

With `NCCCn1ccnc1` [1-(3-aminopropyl)-imidazole], on human QC (setting [2]), the Ki came to 410 ± 10 µM.

In the case of `Cn1cnc(CCN)c1` [1-methyl-4-(β-aminoethyl)-imidazole], at human QC (QC inhibition by L-histamine and its two biological metabolites (Table 4)), the “Ki value (mM)” value was “n.i”.

As to `Cn1ccnc1` [1-methylimidazole], the Ki on human QC amounted to 30 ± 1 µM.

Regarding `c1ccc(-n2ccnc2)cc1` [1-phenylimidazole], on human QC (setting [1]), the “Ki-value (mM)” value is reported as “no inhibition”.

Consider `C=Cn1ccnc1` [1-vinylimidazole], for which the Ki on human QC (setting [2]) worked out at 49 ± 2 µM.

On to `COC(=O)[C@H](C)NC(=O)C1CCC(Cn2ccnc2)N1` (some centres unmarked) [2-[(5-imidazol-1-ylmethyl-pyrrolidine-2-carbonyl)-amino]-propionic acid methyl ester], for which the affinity at human QC corresponds to a Ki of 32.2 ± 0.7 µM.

For `Nc1nc2ccccc2[nH]1` [2-aminobenzimidazole], the Ki on human QC (setting [2]) was 1800 ± 100 µM.

With `Clc1nc2ccccc2[nH]1` [2-chioro-1H-benzimidazole], the “Ki-value (mM)” value on human QC (setting [1]) is reported as “no inhibition”.

As to `CCc1nc(C)c[nH]1` [2-ethyl-4-methyl-imidazole], the Ki at human QC (setting [2]) amounted to 580 ± 40 µM.

Regarding `Cc1nc2ccccc2[nH]1` [2-methyl-benzylimidazole], the Ki on human QC (setting [2]) was determined as 165 ± 4 µM.

On human QC, `Cc1c(C(=O)CCn2ccnc2)sc2ccccc12` [3-(1H-imidazol-1-yl)-1-(3-methylbenzo[b]thiophene-2-yl)propan-1-one] gave a Ki of 2.5 ± 0.1 µM.

`O=C1CNC(=S)N1CCCn1ccnc1` [3-[3-(1H-imidazol-1-yl)propyl]-2-thioxoimidazolidin-4-one]: affinity on human QC was put at a Ki of 0.41 ± 0.01 µM.

Turning to `Cn1cncc1CCN` [3-methyl-4-(β-aminoethyl)-imidazole], on human QC (setting [3]), the Ki worked out at 120 ± 4 µM.

For the compound `N#Cc1nc[nH]c1C#N` [4,5-dicyanoimidazole], the “Ki-value (mM)” value on human QC (setting [1]) was “no inhibition”.

For `c1ccc(-c2nc[nH]c2-c2ccccc2)cc1` [4,5-diphenyl-imidazole], the “Ki-value (mM)” value at human QC (setting [1]) was “no inhibition”.

For `O=C(O)c1ccc(OCCn2ccnc2)cc1` [4-[2-(1H-imidazol-1-yl)-ethoxy]benzoic acid], at human QC, the affinity, expressed as Ki, was 3.4 ± 0.1 µM.

On human QC, `CCCC1C(=O)OCC1Cc1cncn1C` (centres unmarked) [4-[(1-methyl-1H-imidazol-5-yl)methyl]-3-propyldihydrofuran-2-(3H)-one] showed a Ki of 6.7 ± 0.3 µM.

As to `NC(=O)c1[nH]cnc1N` [4-amino-imidazole-5-carbonic acid amide], the Ki at human QC (setting [2]) is 15500 ± 500 µM.

Turning to `O=Cc1c[nH]cn1` [4-imidazole-carboxaldehyde], the Ki on human QC (setting [2]) is 7600 ± 700 µM.

For `Cc1nc[nH]c1CO` [5-hydroxymethyl-4-methyl-imidazole], the Ki at human QC (setting [2]) amounted to 129 ± 5 µM.

`O=C(Nc1ccccc1C(=O)NCCCn1ccnc1)c1ccc([N+](=O)[O-])o1` [5-nitro-2-[2-([{3-(1H-imidazol-1-yl-)propyl}amino]carbonyl)phenyl]furamide]: on human QC, the Ki stood at 6.6 ± 0.4 µM.

In turn, `c1ccn2cncc2c1` [Imidazo[1.5a]pyridine] came in with a Ki on human QC of 35.6 ± 0.5 µM.

`NCCc1c[nH]cn1` [L-histamine]: the Ki on human QC (setting [3]) and on human QC (setting [2]) was 850 ± 40 µM each time.

Take `NC(=O)[C@@H](N)Cc1c[nH]cn1` [L-histidinamide]: the Ki on human QC (setting [2]) worked out at 560 ± 40 µM.

Turning to `N[C@@H](Cc1c[nH]cn1)C(=O)O` [L-histidine], on human QC (setting [2]), the Ki came to 4400 ± 200 µM.

`N[C@H](CO)Cc1c[nH]cn1` [L-histidinol]: the Ki at human QC (setting [2]) was 1530 ± 120 µM.

On to `COC(=O)[C@@H](NC(=O)[C@@H](N)CCC(=O)Nn1ccnc1)C(C)C` [Methyl (2S)-2-{[(28)-2-amino-5-(1H-imidazol-1-ylamino)-5-oxopentanoyl]amino}-3-methylbutanoate], for which, on human QC, the Ki worked out at 164 ± 4 µM.

On to `S=C(NCCn1ccnc1)Nc1ccc(Cl)cc1` [N-(4-chlorophenyl)-N′-[2-(1H-imidazol-1-yl)ethyl]thiourea], for which, at human QC, the Ki came to 1.65 ± 0.07 µM.

As to `C[Si](C)(C)n1ccnc1` [N-(trimethylsilyl)-imidazole], the Ki at human QC (setting [2]) stood at 167 ± 7 µM.

As for `CC(=O)n1ccnc1` [N-acetylimidazole], the Ki at human QC (setting [2]) turned out to be 107 ± 3 µM.

As to `O=C(c1ccccc1)n1ccnc1` [N-benzoylimidazole], the Ki at human QC (setting [2]) came out at 174 ± 7 µM.

Turning to `c1ccc2[nH]cnc2c1` [benzimidazole], the “reaction rate of H-Gly-Pro-pNA hydrolysis after addition of the QC inhibitor” value on glutaminyl cyclase (QC) (case (c): 2.6*10^−5 M glutaminyl thiazolidine, 54 mU QC and 0.4 mM inhibitor) is “the reaction rate goes down as low as in case (a)”.

As to `NC(=O)CC[C@H](N)C(=O)N1CCSC1` [glutaminyl thiazolidine], on glutaminyl cyclase (QC), the “degradation by glutaminyl cyclase” value is “degraded to the pyro-glutaminyl-thiazolidine” and the “half-life in the presence of QC” value is “reduced”. Further, at DPIV, the “inhibition of DPIV (hydrolysis of H-Gly-Pro-pNA)” value is on record as “competitive inhibition”.

With `COC(=O)c1c[nH]cn1` [imidazole-4-carbonic acid methylester], the Ki on human QC (setting [2]) is 14500 ± 600 µM.

With `O=C(C(=O)n1ccnc1)n1ccnc1` [oxalic acid dilmidazolidide], on human QC, the Ki was 78 ± 2 µM.

As to `O=C1CCC(C(=O)N2CCSC2)N1` (centres unmarked) [pyro-glutaminyl-thiazolidine], the “inhibition of DPIV (hydrolysis of H-Gly-Pro-pNA)” value against DPIV was “not active”.
